These results are taken from publication PMC11013491, “Triterpenoids from the Leaves of Diospyros digyna and Their PTP1B Inhibitory Activity” (Molecules, 2024).

The target of the assay is T1, PTP1B (Homo sapiens, UniProt P18031).
T1 construct: purchased Abcam, Cambridge, UK
T1 sequence (P18031 1-435): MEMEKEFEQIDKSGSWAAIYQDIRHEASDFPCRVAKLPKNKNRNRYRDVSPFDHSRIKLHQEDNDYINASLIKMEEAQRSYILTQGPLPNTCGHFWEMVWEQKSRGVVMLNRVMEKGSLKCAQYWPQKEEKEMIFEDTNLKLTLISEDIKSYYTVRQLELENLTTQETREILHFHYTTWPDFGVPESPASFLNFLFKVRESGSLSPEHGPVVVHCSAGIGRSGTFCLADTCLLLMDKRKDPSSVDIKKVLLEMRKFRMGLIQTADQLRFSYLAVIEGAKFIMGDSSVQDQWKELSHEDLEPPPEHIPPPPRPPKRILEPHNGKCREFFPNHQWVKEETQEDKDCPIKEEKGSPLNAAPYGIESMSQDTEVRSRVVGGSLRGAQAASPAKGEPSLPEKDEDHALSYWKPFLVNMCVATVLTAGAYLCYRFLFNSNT
Description: PTP1B inhibition assay (pNPP substrate). It is filed as biochemical. The following applies: human recombinant PTP1B, 37 °C, 30 min, triplicate, means ± SD, read-out: PTP1B inhibitory activity IC50. The procedure:
The inhibitory activity of the isolated compounds against PTP1B (Abcam, Cambridge, UK, human recombinant) was assayed according to the method reported previously. The reagent p-nitrophenyl phosphate (pNPP) was used as the substrate, and oleanolic acid was used as the positive control. In brief, a 100 μL assay mixture containing 1 μg/mL PTP1B, samples, 4 mM pNPP, 55 mM NaCl, 2.2 mM DTT, 1.1 mM EDTA, and […] in 11 mM Tris-HCl, pH 7.5, was incubated at 37 °C for 30 min in a 96-well plate. The absorbance of 405 nm was measured by a microplate reader. Data were analyzed by GraphPad Prism v.10.2.0 software. All data were obtained in triplicate and presented as means ± SD.

On to `C[C@H]1[C@H](C)CC[C@]2(C(=O)O)CC[C@]3(C)C(=CC[C@@H]4[C@@]5(C)C[C@@H](O)[C@H](OC(=O)/C=C\c6ccc(O)cc6)C(C)(C)[C@@H]5CC[C@]43C)[C@H]12` [Compound 10, 3β-O-cis-p-coumaroyl-2α-hydroxy-urs-12-en-28-oic acid], for which the 50% inhibitory concentration (IC50) is 19.2 ± 0.22 µM. The result for `C[C@H]1[C@H](C)CC[C@]2(C(=O)O)CC[C@]3(C)C(=CC[C@@H]4[C@@]5(C)C[C@@H](O)[C@H](OC(=O)/C=C/c6ccc(O)cc6)C(C)(C)[C@@H]5CC[C@]43C)[C@H]12` [Compound 11, jacoumaric acid] reads 26.2 ± 1.31 µM; that for `C=C1CCC2(C(=O)O)CCC3(C)C(=CCC4C5(C)CC(O)C(OC(=O)C=Cc6ccc(O)cc6)C(C)(C)C5CCC43C)C2C1C` (stereo not drawn) [Compound 4, 3β-trans-p-coumaroyloxy-2α-hydroxy-12,20(30)-ursadien-28-oic acid], 48.7 ± 5.17 µM. In the case of `C=C1CC[C@]2(C(=O)O)CC[C@]3(C)C(=CC[C@@H]4[C@@]5(C)C[C@@H](O)[C@@H](OC(=O)/C=C/c6ccc(O)cc6)C(C)(C)[C@@H]5CC[C@]43C)[C@@H]2[C@H]1C` [Compound 15, 3α-trans-coumaroyloxy-2α-hydroxy-12,20(30)-dien-28-ursolic acid] it was 17.1 ± 1.67 µM; in that of `COc1cc(/C=C/C(=O)O[C@H]2[C@H](O)C[C@]3(C)[C@H]4CC=C5[C@@H]6[C@@H](C)[C@H](C)CC[C@]6(C(=O)O)CC[C@@]5(C)[C@]4(C)CC[C@H]3C2(C)C)ccc1O` [Compound 13, 3β-O-trans-feruloyl-2α-hydroxy-urs-12-en-28-oic acid], 10.3 ± 1.21 µM. In the case of `COc1cc(/C=C\C(=O)O[C@H]2[C@H](O)C[C@]3(C)[C@H]4CC=C5[C@@H]6[C@@H](C)[C@H](C)CC[C@]6(C(=O)O)CC[C@@]5(C)[C@]4(C)CC[C@H]3C2(C)C)ccc1O` [Compound 12, 3β-O-cis-feruloyl-2α-hydroxy-urs-12-en-28-oic acid] it was 16.2 ± 0.57 µM.

Turning to `C=C1CC[C@]2(C(=O)O)CC[C@]3(C)C(=CC[C@@H]4[C@@]5(C)C[C@@H](O)[C@@H](OC(=O)/C=C/c6ccc(O)c(OC)c6)C(C)(C)[C@@H]5CC[C@]43C)[C@@H]2[C@H]1C` [Compound 6, 3α-trans-feruloyloxy-2α-hydroxy-12,20(30)-ursadien-28-oic acid], the IC50 amounted to 34 ± 4.88 µM.

On to `C=C1CCC2(C(=O)O)CCC3(C)C(=CCC4C5(C)CC(O)C(OC(=O)C=Cc6ccc(O)c(OC)c6)C(C)(C)C5CCC43C)C2C1C` (stereo not drawn) [Compound 5, 3β-trans-feruloyloxy-2α-hydroxy-12,20(30)-ursadien-28-oic acid], for which the IC50 came to 23.7 ± 0.73 µM.

The term IC50 denotes the concentration that gives 50% inhibition.
